Measured values published in patent publication US10633419B2, “Immunomodulators” (BRISTOL-MYERS SQUIBB COMPANY, priority 2014, dated 2020).
Positions of bridges follow the written chain, without caps; N, C: chain ends. Non-standard residues stand in square brackets, D forms with d. Residues, ends and D or L forms follow the SMILES beside them. *: point of attachment. Trp(1-CH2COOH) = N[C@@H](Cc1cn(CC(=O)O)c2ccccc12)C(=O)O; Gly(octyl) = CCCCCCCC[C@H](N)C(=O)O; Hyp = O=C(O)[C@@H]1C[C@@H](O)CN1; NHhexadecyl = CCCCCCCCCCCCCCCCN*; NHtetradecyl = CCCCCCCCCCCCCCN*; NMeNle = CCCC[C@H](NC)C(=O)O; Tle = CC(C)(C)[C@H](N)C(=O)O; NMeA = CN[C@@H](C)C(=O)O; Aun = NCCCCCCCCCCC(=O)O; Dab = NCC[C@H](N)C(=O)O; Dap = NC[C@H](N)C(=O)O

molecular target: T1, PD-L1 (Homo sapiens, UniProt Q9NZQ7); assay: PD-1/PD-L1 Homogenous Time-Resolved Fluorescence (HTRF) binding assay (PD-1-Ig/PD-L1-His); conditions: inhibition of PD-1-Ig binding to PD-L1-TVMV-His; value given as number; read-out: HTRF IC50
T1 construct: hPDL1(19-239)-TVMV-His; made in house; host or cells: HEK293T
Procedure, shortened: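 HTRF competition in dPBS with 0.1% BSA and 0.05% Tween-20: 20 nM PD-1-Ig added after 15 min compound pre-incubation with 10 nM PD-L1-His, then another 15 min. Signal (665/620 nm) after 30 min with APC anti-His (20 nM) and Eu anti-Ig (1 nM).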

T1 sequence (Q9NZQ7 with tags, fused parts or gaps): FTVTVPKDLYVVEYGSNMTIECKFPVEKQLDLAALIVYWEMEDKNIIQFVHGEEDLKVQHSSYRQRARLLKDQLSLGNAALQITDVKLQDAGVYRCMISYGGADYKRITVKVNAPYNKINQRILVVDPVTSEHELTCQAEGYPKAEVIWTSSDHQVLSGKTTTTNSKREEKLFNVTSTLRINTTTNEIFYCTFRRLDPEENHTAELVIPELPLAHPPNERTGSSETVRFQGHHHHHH

| IC50 [nM] | Structure (SMILES) |
| --- | --- |
| 4.1 | CCCC[C@H]1C(=O)N(C)[C@@H](CCCC)C(=O)N[C@@H](CC(C)C)C(=O)N[C@H](C(=O)NCC(=O)N[C@H](CC(=O)O)C(=O)NCCCCCCCCCCC(=O)O)CSCC(=O)N[C@@H](Cc2ccc(O)cc2)C(=O)N(C)[C@@H](C)C(=O)N[C@@H](CC(N)=O)C(=O)N2CCC[C@H]2C(=O)N[C@@H](CN)C(=O)N[C@@H](CC(C)C)C(=O)N2C[C@H](O)C[C@H]2C(=O)N[C@@H](Cc2c[nH]c3ccccc23)C(=O)N[C@@H](CCN)C(=O)N[C@@H](Cc2cn(CC(=O)O)c3ccccc23)C(=O)N1C [Example 11101] ({CH2CO}-Y[NMeA]NP[Dap]L[Hyp]W[Dab][Trp(1-CH2COOH)][NMeNle][NMeNle]LCG[dD][Aun]-OH; thioether N-14) |
| 13 | CCCCCCCC[C@H](NC(=O)CCCCCCCCCCNC(=O)[C@@H]1CSCC(=O)N[C@@H](Cc2ccc(O)cc2)C(=O)N(C)[C@@H](C)C(=O)N[C@@H](CC(N)=O)C(=O)N2CCC[C@H]2C(=O)N[C@@H](CN)C(=O)N[C@@H](CC(C)C)C(=O)N2C[C@H](O)C[C@H]2C(=O)N[C@@H](Cc2c[nH]c3ccccc23)C(=O)N[C@@H](CCN)C(=O)N[C@@H](Cc2cn(CC(=O)O)c3ccccc23)C(=O)N(C)[C@@H](CCCC)C(=O)N(C)[C@@H](CCCC)C(=O)N[C@@H](CC(C)C)C(=O)N1)C(=O)O [Example 11102] ({CH2CO}-Y[NMeA]NP[Dap]L[Hyp]W[Dab][Trp(1-CH2COOH)][NMeNle][NMeNle]LC[Aun][Gly(octyl)]-OH; thioether N-14) |

same assay, conditions: inhibition of PD-1-Ig binding to PD-L1-TVMV-His; value given as range class; read-out: HTRF IC50

| IC50 [nM] | Structure (SMILES) |
| --- | --- |
| 0.3 to 9.9 | CCCC[C@H]1C(=O)N(C)[C@@H](CCCC)C(=O)N[C@@H](CC(C)C)C(=O)N[C@H](C(=O)NCC(=O)N[C@@H](CC(=O)O)C(=O)NCC(=O)NCCCCCCCCCCC(=O)O)CSCC(=O)N[C@@H](Cc2ccc(O)cc2)C(=O)N(C)[C@@H](C)C(=O)N[C@@H](CC(N)=O)C(=O)N2CCC[C@H]2C(=O)N[C@@H](CN)C(=O)N[C@@H](CC(C)C)C(=O)N2C[C@H](O)C[C@H]2C(=O)N[C@@H](Cc2c[nH]c3ccccc23)C(=O)N[C@@H](CCN)C(=O)N[C@@H](Cc2cn(CC(=O)O)c3ccccc23)C(=O)N1C [Example 11099] ({CH2CO}-Y[NMeA]NP[Dap]L[Hyp]W[Dab][Trp(1-CH2COOH)][NMeNle][NMeNle]LCGDG[Aun]-OH; thioether N-14) |
| 10 to 99 | CCCC[C@H]1C(=O)N(C)[C@@H](CCCC)C(=O)N[C@@H](CC(C)C)C(=O)N[C@H](C(=O)NCC(=O)N[C@H](CC(=O)O)C(=O)NCC(=O)NCCCCCCCCCCC(=O)O)CSCC(=O)N[C@@H](Cc2ccc(O)cc2)C(=O)N(C)[C@@H](C)C(=O)N[C@@H](CC(N)=O)C(=O)N2CCC[C@H]2C(=O)N[C@@H](CN)C(=O)N[C@@H](CC(C)C)C(=O)N2C[C@H](O)C[C@H]2C(=O)N[C@@H](Cc2c[nH]c3ccccc23)C(=O)N[C@@H](CCN)C(=O)N[C@@H](Cc2cn(CC(=O)O)c3ccccc23)C(=O)N1C [Example 11100] ({CH2CO}-Y[NMeA]NP[Dap]L[Hyp]W[Dab][Trp(1-CH2COOH)][NMeNle][NMeNle]LCG[dD]G[Aun]-OH; thioether N-14) |
| 10 to 99 | CCCCCCCC[C@H](NC(=O)CNC(=O)CNC(=O)CNC(=O)[C@@H]1CSCC(=O)N[C@@H](Cc2ccc(O)cc2)C(=O)N(C)[C@@H](C)C(=O)N[C@@H](CC(N)=O)C(=O)N2CCC[C@H]2C(=O)N[C@@H](CN)C(=O)N[C@@H](CC(C)C)C(=O)N2C[C@H](O)C[C@H]2C(=O)N[C@@H](Cc2c[nH]c3ccccc23)C(=O)N[C@@H](CCN)C(=O)N[C@@H](Cc2cn(CC(=O)O)c3ccccc23)C(=O)N(C)[C@@H](CCCC)C(=O)N(C)[C@@H](CCCC)C(=O)N[C@@H](CC(C)C)C(=O)N1)C(=O)O [Example 11103] ({CH2CO}-Y[NMeA]NP[Dap]L[Hyp]W[Dab][Trp(1-CH2COOH)][NMeNle][NMeNle]LCGGG[Gly(octyl)]-OH; thioether N-14) |
| 100 to 1600 | CCCCCCCCCCCCCCCCNC(=O)CNC(=O)CNC(=O)[C@@H]1CSCC(=O)N[C@@H](Cc2ccc(O)cc2)C(=O)N(C)[C@@H](C)C(=O)N[C@@H](CC(N)=O)C(=O)N2CCC[C@H]2C(=O)N[C@@H](CCN)C(=O)N[C@@H](CC(C)C)C(=O)N2C[C@H](O)C[C@H]2C(=O)N[C@@H](Cc2c[nH]c3ccccc23)C(=O)N[C@@H](CO)C(=O)N[C@@H](Cc2c[nH]c3ccccc23)C(=O)N(C)[C@@H](CCCC)C(=O)N(C)[C@@H](CCCC)C(=O)N[C@@H](CCCNC(=N)N)C(=O)N1 [Example 11104] ({CH2CO}-Y[NMeA]NP[Dab]L[Hyp]WSW[NMeNle][NMeNle]RCGG-NHhexadecyl; thioether N-14) |
| 100 to 1600 | CCCCCCCCCCCCCCNC(=O)CNC(=O)CNC(=O)[C@@H]1CSCC(=O)N[C@@H](Cc2ccc(O)cc2)C(=O)N(C)[C@@H](C)C(=O)N[C@@H](CC(N)=O)C(=O)N2CCC[C@H]2C(=O)N[C@@H](CCN)C(=O)N[C@@H](CC(C)C)C(=O)N2C[C@H](O)C[C@H]2C(=O)N[C@@H](Cc2c[nH]c3ccccc23)C(=O)N[C@@H](C(C)(C)C)C(=O)N[C@@H](Cc2c[nH]c3ccccc23)C(=O)N(C)[C@@H](CCCC)C(=O)N(C)[C@@H](CCCC)C(=O)N[C@@H](CCCNC(=N)N)C(=O)N1 [Example 11107] ({CH2CO}-Y[NMeA]NP[Dab]L[Hyp]W[Tle]W[NMeNle][NMeNle]RCGG-NHtetradecyl; thioether N-14) |
| 100 to 1600 | CCCCCCCCCCCCCCCCNC(=O)CNC(=O)CNC(=O)CNC(=O)CNC(=O)[C@@H]1CSCC(=O)N[C@@H](Cc2ccc(O)cc2)C(=O)N(C)[C@@H](C)C(=O)N[C@@H](CC(N)=O)C(=O)N2CCC[C@H]2C(=O)N[C@@H](CN)C(=O)N[C@@H](CC(C)C)C(=O)N2C[C@H](O)C[C@H]2C(=O)N[C@@H](Cc2c[nH]c3ccccc23)C(=O)N[C@@H](CO)C(=O)N[C@@H](Cc2c[nH]c3ccccc23)C(=O)N(C)[C@@H](CCCC)C(=O)N(C)[C@@H](CCCC)C(=O)N[C@@H](CCCNC(=N)N)C(=O)N1 [Example 11108] ({CH2CO}-Y[NMeA]NP[Dap]L[Hyp]WSW[NMeNle][NMeNle]RCGGGG-NHhexadecyl; thioether N-14) |
| 100 to 1600 | CCCCCCCCCCCCCCCCNC(=O)CNC(=O)CNC(=O)[C@@H]1CSCC(=O)N[C@@H](Cc2ccc(O)cc2)C(=O)N(C)[C@@H](C)C(=O)N[C@@H](CC(N)=O)C(=O)N2CCC[C@H]2C(=O)N[C@@H](CCC(=O)O)C(=O)N[C@@H](CC(C)C)C(=O)N2C[C@H](O)C[C@H]2C(=O)N[C@@H](Cc2c[nH]c3ccccc23)C(=O)N[C@@H](CO)C(=O)N[C@@H](Cc2c[nH]c3ccccc23)C(=O)N(C)[C@@H](CCCC)C(=O)N(C)[C@@H](CCCC)C(=O)N[C@@H](CCCNC(=N)N)C(=O)N1 [Example 11109] ({CH2CO}-Y[NMeA]NPEL[Hyp]WSW[NMeNle][NMeNle]RCGG-NHhexadecyl; thioether N-14) |
| 100 to 1600 | CCCCCCCCCCCCCCCCNC(=O)CCCCCCCCCCNC(=O)CNC(=O)[C@@H]1CSCC(=O)N[C@@H](Cc2ccc(O)cc2)C(=O)N(C)[C@@H](C)C(=O)N[C@@H](CC(N)=O)C(=O)N2CCC[C@H]2C(=O)N[C@@H](Cc2cnc[nH]2)C(=O)N[C@@H](CC(C)C)C(=O)N2C[C@H](O)C[C@H]2C(=O)N[C@@H](Cc2c[nH]c3ccccc23)C(=O)N[C@@H](CO)C(=O)N[C@@H](Cc2c[nH]c3ccccc23)C(=O)N(C)[C@@H](CCCC)C(=O)N(C)[C@@H](CCCC)C(=O)N[C@@H](CCCNC(=N)N)C(=O)N1 [Example 11112] ({CH2CO}-Y[NMeA]NPHL[Hyp]WSW[NMeNle][NMeNle]RCG[Aun]-NHhexadecyl; thioether N-14) |
